Measurements: patent publication US20060134197A1, “Method of reducing unpleasant taste and/or unpleasant odor” (priority 2002, published 2006)

Key:
[1] = Inhibiting the production of hydrogen sulfide from chicken egg due to heat-decomposition; conditions: 10 g egg solution and 5 g saccharide in 50 ml, pH 7.0; 80° C. for 60 minutes; 100 minus relative value, control defined as 100
Source text: Ten grams of an egg solution prepared by mixing a commercialized chicken egg with an equal weight of deionized water, and on a dry solid basis 5 g of a precisely measured saccharide sample; i.e. hydrous crystalline α,α-trehalose (food grade, purity 97.0% or more, commercialized by Hayashibara Biochemical Laboratories, Inc., Okayama, Japan), sucrose (a commercialized granulated sugar), a syrup containing saccharide derivatives of α,α-trehalose prepared in the following Example 1, or a syrup containing saccharide derivatives of α,α-trehalose prepared in the following Example 6 (hereinafter, it is called as “hydrogenated syrup containing saccharide derivatives containing α,α-trehalose”); were placed in a 50-ml volume measuring flask, and admixed with 5 ml of 500 mM phosphate buffer (pH 7.0) and deionized water to give a final volume of 50 ml. As a control, 10 g of an egg solution was admixed with deionized water to give a final volume of 50 ml. Five milliliters of each of the samples was placed into a 20-ml volume vial, sealed with a butyl gum cap, and kept at 80° C. for 60 minutes in an incubator. Hydrogen sulfide contained in 10 ml of the resulting headspace gas was measured by “[…] […] And then, the relative rate of inhibiting the production of hydrogen sulfide was calculated by 100 minus the relative value.

[2] = Inhibiting the production of aldehydes from heated minced mackerel (headspace GC); conditions: minced mackerel with 5% saccharide solution; for Relative rate of inhibiting the production of acetaldehyde / Relative rate of inhibiting the production of butanal / Relative rate of inhibiting the production of decanal / Relative rate of inhibiting the production of heptanal / Relative rate of inhibiting the production of hexanal / Relative rate of inhibiting the production of nonanal / Relative rate of inhibiting the production of octanal / Relative rate of inhibiting the production of pentanal / Relative rate of inhibiting the production of propanal: headspace gas; for Relative rate of inhibiting the production of total aldehydes: sum of nine aldehydes
Experimental: (§1) Five grams of minced mackerel, prepared by mincing commercialized mackerel without head part, internal organs and bone with a mincer to homogeneity, was placed in a 20-ml vial, and admixed with 5 ml of an aqueous solution containing on a dry solid basis 5% of “TREHA®”, a food grade hydrous α,α-trehalose commercialized by Hayashibara Biochemical laboratories, Inc., Okayama, Japan (purity 99.0% or more), sucrose (a commercialized granulated sugar), or a syrupy saccharide mixture containing saccharide derivatives of α,α-trehalose prepared in Example 1. The resulting vials were sealed with a butyl gum cap to prepare test samples. As a control, a vial containing 5 g of the minced mackerel and 5 ml of deionized water was sealed with a butyl gum cap for a control sample. These samples were heated in boiled water for 15 minutes, cooled in running water, and heated at 80° C. for five minutes. The resulting headspace gas was taken from each of the vials and allowed to measure the contents of amines, hydrogen sulfide and aldehydes.
Measurement of the content of aldehydes was carried out by subjecting 2 ml of the headspace gas to analysis by GC-14B gas chromatography, a hydrogen flame ionizing detector commercialized by Shimazu co., Ltd., Kyoto, Japan, with flowing helium gas as a carrier gas in 1 ml/minute, and using TC-FFAP capillary column, 30min length and 0.52 mm in internal diameter (df=1 μm, sprit rate 1/30), commercialized by GL Science Company, with an increasing column temperature from 40° C. to 250° C. at a rate of 5° C./minute.
(§2) The values of the production of amines, hydrogen sulfide and aldehydes of each test sample were compared with the value of control defined as 100 to calculate the relative values thereof. And then, the relative rates of inhibiting the production of amines, hydrogen sulfide and aldehydes were respectively calculated by 100 minus each of the relative values.

[3] = Inhibiting the production of hydrogen sulfide from heated minced mackerel; conditions: minced mackerel with 5% saccharide solution, headspace gas
Experimental: Five grams of minced mackerel, prepared by mincing commercialized mackerel without head part, internal organs and bone with a mincer to homogeneity, was placed in a 20-ml vial, and admixed with 5 ml of an aqueous solution containing on a dry solid basis 5% of “TREHA®”, a food grade hydrous α,α-trehalose commercialized by Hayashibara Biochemical laboratories, Inc., Okayama, Japan (purity 99.0% or more), sucrose (a commercialized granulated sugar), or a syrupy saccharide mixture containing saccharide derivatives of α,α-trehalose prepared in Example 1. The resulting vials were sealed with a butyl gum cap to prepare test samples. As a control, a vial containing 5 g of the minced mackerel and 5 ml of deionized water was sealed with a butyl gum cap for a control sample. […]
Similarly as in Experiment 4, the content of hydrogen sulfide was measured using 10 ml of a headspace gas by “GASTECH No. 4 LT”, a hydrogen sulfide detector commercialized by GL Science Corporation, under an aspiration time of one minute.
as §2

[4] = Inhibiting the production of amines from heated minced mackerel (headspace GC); conditions: minced mackerel with 5% saccharide solution; for Relative rate of inhibiting the production of dimethylamine / Relative rate of inhibiting the production of trimethylamine: headspace gas; for Relative rate of inhibiting the production of total amine: trimethylamine plus dimethylamine
Experimental: as §1
Measurement of the content of amines was carried out by subjecting 2 ml of the headspace gas to analysis by GC-14B gas chromatography, a hydrogen flame ionizing detector commercialized by Shimazu Co., Ltd., Kyoto, Japan, with flowing helium gas as a carrier gas at a flow rate of 1 ml/minute, and using DB-5 capillary column, 30 m in length and 0.25 mm in internal diameter (df=0.25 μm, sprit rate 1/30), commercialized by J & W Company, with an increasing column temperature from 40° C. to 250° C. at a rate of 5° C./minute. The amount of total amine was calculated by totalizing the amount of trimethylamine and dimethylamine.
as §2

[5] = Inhibiting the production of lower aldehydes and 2,3-butandion from heated cacao powder; conditions: 1 g cacao powder in 4 ml of 2.5% saccharide solution; microwave, then 100° C. five minutes
Source text: “Stuffy smell”, meaning a kind of foreign smell generated from cocoa, chocolate, and compositions thereof during their processes, is known to deteriorate their flavor. 2,3-Butandion and lower aldehydes are known as a causative substance of foreign smell. On the other hand, […], classified in lower aldehydes, is known as one of the aromatic ingredients of chocolates. To confirm the effect of saccharide derivatives of α,α-trehalose on inhibiting the production of such compounds, the following experiment was carried out. Four milliliters of 2.5%, on a dry solid basis, saccharide solution containing either of sucrose, “TREHA®” (an α,α-trehalose commercialized by Hayashibara Biochemical Laboratories, Inc., Okayama, Japan), a commercialized enzyme-treated starch syrup and a syrupy saccharide mixture containing saccharide derivatives of α,α-trehalose prepared in Example 1 (on a dry solid basis about 53% of saccharide derivatives of α,α-trehalose) was placed in a 20-ml vial and admixed with 1 g of cacao powder. The resulting vial was covered with a plastic warp and heated by a microwave oven (500 W) for five seconds. As a control, 4 ml of distilled water and 1 g of cacao powder were placed in the vial and treated similarly as in the saccharide solutions. These vials were sealed with a butyl gum cap over the plastic wrap and heated at 100° C. in a heat block for five minutes. Two milliliters of the resulting headspace gas was subjected to gas chromatography to measure the contents of lower aldehydes and 2,3-butandion according to the method in Experiment 5-4. The amount of total aldehydes was calculated by totalizing the measured amounts of three kinds of aldehydes and other aldehydes listed in Table 8.
The resulting value of the production of aldehydes or 2,3-butandion of each of the test samples was compared with the value of control defined as 100 to calculate the relative value of the production of them. And then, the relative rate of inhibiting the production of them was calculated by 100 minus the relative value.

In the case of OC[C@H]1O[C@@](CO)(O[C@H]2O[C@H](CO)[C@@H](O)[C@H](O)[C@H]2O)[C@@H](O)[C@@H]1O [Sucrose, sucrose], the “Relative rate of inhibiting the production of hydrogen sulfide” value [1] is reported as 14, the “Relative rate of inhibiting the production of acetaldehyde” value [2] is reported as 13 and the “Relative rate of inhibiting the production of butanal” value [2] is reported as −13. For the same compound, the “Relative rate of inhibiting the production of decanal” value [2] was 57, the “Relative rate of inhibiting the production of heptanal” value [2] was 54 and the “Relative rate of inhibiting the production of hexanal” value [2] was 33. For the same compound, the “Relative rate of inhibiting the production of nonanal” value [2] was −54, the “Relative rate of inhibiting the production of octanal” value [2] was 43 and the “Relative rate of inhibiting the production of pentanal” value [2] was −15. For the same compound, the “Relative rate of inhibiting the production of propanal” value [2] was 32, the “Relative rate of inhibiting the production of total aldehydes” value [2] was 20 and the “Relative rate of inhibiting the production of hydrogen sulfide” value [3] was 12. The “Relative rate of inhibiting the production of dimethylamine” value [4] was −34, the “Relative rate of inhibiting the production of trimethylamine” value [4] was 12 and the “Relative rate of inhibiting the production of total amine” value [4] was −8. The “Relative rate of inhibiting the production of 2,3-butandion” value [5] was 95, the “Relative rate of inhibiting the production of acetaldehyde” value [5] was 44 and the “Relative rate of inhibiting the production of isobutanal” value [5] was 52. The “Relative rate of inhibiting the production of other aldehydes” value [5] was 0, the “Relative rate of inhibiting the production of propanal” value [5] was 43 and the “Relative rate of inhibiting the production of total aldehydes” value [5] was 48.

In the case of OC[C@H]1O[C@H](O[C@H]2O[C@H](CO)[C@@H](O)[C@H](O)[C@H]2O)[C@H](O)[C@@H](O)[C@@H]1O [α,α-Trehalose, α,α-trehalose], the “Relative rate of inhibiting the production of hydrogen sulfide” value [1] is reported as 30, the “Relative rate of inhibiting the production of acetaldehyde” value [2] is reported as 73 and the “Relative rate of inhibiting the production of butanal” value [2] is reported as 100. The “Relative rate of inhibiting the production of decanal” value [2] was 76, the “Relative rate of inhibiting the production of heptanal” value [2] was 88 and the “Relative rate of inhibiting the production of hexanal” value [2] was 93. The “Relative rate of inhibiting the production of nonanal” value [2] was 100, the “Relative rate of inhibiting the production of octanal” value [2] was 100 and the “Relative rate of inhibiting the production of pentanal” value [2] was 83. For the same compound, the “Relative rate of inhibiting the production of propanal” value [2] was 98, the “Relative rate of inhibiting the production of total aldehydes” value [2] was 80 and the “Relative rate of inhibiting the production of hydrogen sulfide” value [3] was 26. For the same compound, the “Relative rate of inhibiting the production of dimethylamine” value [4] was 44, the “Relative rate of inhibiting the production of trimethylamine” value [4] was 58 and the “Relative rate of inhibiting the production of total amine” value [4] was 52. The “Relative rate of inhibiting the production of 2,3-butandion” value [5] was 100, the “Relative rate of inhibiting the production of acetaldehyde” value [5] was 50 and the “Relative rate of inhibiting the production of isobutanal” value [5] was 58. The “Relative rate of inhibiting the production of other aldehydes” value [5] was 0, the “Relative rate of inhibiting the production of propanal” value [5] was 47 and the “Relative rate of inhibiting the production of total aldehydes” value [5] was 53.
